According to article PMC2680961, “Homologous desensitization of signalling by the alpha (α) isoform of the human thromboxane A2 receptor: A specific role for nitric oxide signalling” (Biochimica et Biophysica Acta, 2007):
Changes are numbered by the printed parent chain.

Legend:
TPα^T337,S340A = target: T1, TPα^T337,S340A (Homo sapiens, UniProt P21731, S340A/T337A); test: Intracellular calcium mobilization, HEK.TPα^T337,S340A cells; format: cell-based
T1 construct: expressed in transfected cells
T1 sequence (P21731 1-343 T337A/S340A): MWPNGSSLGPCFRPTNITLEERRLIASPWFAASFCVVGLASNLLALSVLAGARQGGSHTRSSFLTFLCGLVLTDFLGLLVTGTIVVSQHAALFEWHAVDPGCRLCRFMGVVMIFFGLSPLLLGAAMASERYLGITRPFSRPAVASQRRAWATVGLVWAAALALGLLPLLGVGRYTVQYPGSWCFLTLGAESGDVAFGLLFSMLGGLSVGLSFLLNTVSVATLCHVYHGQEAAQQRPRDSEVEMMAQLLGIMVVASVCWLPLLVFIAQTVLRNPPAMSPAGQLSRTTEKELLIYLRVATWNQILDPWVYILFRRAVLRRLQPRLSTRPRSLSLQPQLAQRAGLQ
Method: Measurement of intracellular calcium mobilization ([Ca^2+]i) in FURA2/AM preloaded HEK 293 cell lines (2 × 10^6 cells/dish), each transiently co-transfected with pADVA (10 μg), and pCMV:Gαq (25 μg), was carried out as previously described. To investigate the effect of GRK2/βARK1 on TP-mediated [Ca^2+]i mobilization, HEK.TPα or HEK.TPβ cells (2 × 10^6 cells/dish) were co-transfected with pADVA (10 μg), pCMV:Gαq (25 μg) along with pRK5:βARK1^495–689 (25 μg), encoding a dominant negative form of GRK2/βARK1[39]. […] For each measurement of [Ca^2+]i mobilization, aliquots of cells were diluted to 0.825 × 10^6 cells/ml in HBSSHB, 1 mM CaCl2 and FURA2 fluorescence was recorded (2 ml aliquots of cells) at 37^ °C with gentle stirring with a Perkin Elmer-Cetus LS50-B spectrofluorometer at excitation wavelengths of 340 nm and 380 nm and emission wavelength of 510 nm, respectively.
Cells were stimulated with the TP agonist U46619 (1 μM) and changes in [Ca^2+]i mobilization were monitored as a function of time. […]
The vehicle had no effect on U46619-mediated [Ca^2+]i mobilization. Calibration of the signal was performed in each sample by adding 0.2% Triton X-100 to obtain the maximal fluorescence ratio (Rmax) and then 1 mM EGTA to obtain the minimal fluorescence ratio (Rmin). […]

TPα = target: T2, TPα (Homo sapiens, UniProt P21731); test: Intracellular calcium mobilization, HEK.TPα cells; format: cell-based; conditions: HEK.TPα
T2 construct: expressed in transfected cells
T2 sequence (P21731 1-343): T1 sequence (P21731 1-343 T337A/S340A) with A337T, A340S
Method: Measurement of intracellular calcium mobilization ([Ca^2+]i) in FURA2/AM preloaded HEK 293 cell lines (2 × 10^6 cells/dish), each transiently co-transfected with pADVA (10 μg), and pCMV:Gαq (25 μg), was carried out as previously described. To investigate the effect of GRK2/βARK1 on TP-mediated [Ca^2+]i mobilization, HEK.TPα or HEK.TPβ cells (2 × 10^6 cells/dish) were co-transfected with pADVA (10 μg), pCMV:Gαq (25 μg) along with pRK5:βARK1^495–689 (25 μg), encoding a dominant negative form of GRK2/βARK1[39]. Approximately 48 h post-transfection, cells were harvested by scraping, washed twice in ice-cold PBS and resuspended in HBSSHB (modified Ca^2+/Mg^2+-free Hank's buffered salt solution, containing […], pH 7.67, 0.1% bovine serum albumin (BSA)) buffer at 10^7 cells/ml and incubated in the dark with 5 μM FURA2/AM for 45 min at 37 °C. Cells were collected by centrifugation (900×g, 5 min), washed once in an equal volume of HBSSHB, and were finally resuspended in HBSSHB buffer at 10^7 cells/ml and kept at room temperature in the dark for 40 min. For each measurement of [Ca^2+]i mobilization, aliquots of cells were diluted to 0.825 × 10^6 cells/ml in HBSSHB, 1 mM CaCl2 and FURA2 fluorescence was recorded (2 ml aliquots of cells) at 37^ °C with gentle stirring with a Perkin Elmer-Cetus LS50-B spectrofluorometer at excitation wavelengths of 340 nm and 380 nm and emission wavelength of 510 nm, respectively.
[…] To assess agonist-mediated homologous desensitization, cells (0.825 × 10^6 cells/ml; 2 ml per assay) were stimulated with 1 μM U46619 (Primary stimulation) or, as a control, with the vehicle for 4 min; thereafter, cells were collected by centrifugation (900×g, 5 min); were washed twice in 2 ml HBSSHB, 1 mM CaCl2; and finally resuspended in 2 ml HBSSHB,1 mM CaCl2 and were left to recover over various time intervals (ranging from 0 to 60 min); thereafter, cells re-stimulated with 1 μM U46619 (Secondary stimulation) and changes in [Ca^2+]i mobilization were monitored as a function of time. To assess the role of protein kinase (PK) A, PKC or PKG on U46619-mediated desensitization of TPα signalling, cells were pre-incubated with the PKA inhibitor H-89 (10 μM), the PKC inhibitor GF 109203X (50 nM) or the PKG inhibitor KT 5823 (50 nM), for 15 min and respective kinase inhibitors were maintained throughout the primary/secondary U46619-stimulations and during the washes.
The vehicle had no effect on U46619-mediated [Ca^2+]i mobilization. Calibration of the signal was performed in each sample by adding 0.2% Triton X-100 to obtain the maximal fluorescence ratio (Rmax) and then 1 mM EGTA to obtain the minimal fluorescence ratio (Rmin). The ratio of the fluorescence at 340 nm to that at 380 nm is a measure of [Ca^2+]i, which assumes a Kd of 225 nM Ca^2+ for FURA2/AM. The results presented in the figures are representative data from at least three or four independent experiments and are plotted as changes in Ca^2+i mobilized (Δ[Ca^2+]i (nM)) as a function of time (s) upon ligand stimulation. Changes in [Ca^2+]i mobilization were determined by measuring peak rises in [Ca^2+]i mobilized (Δ[Ca^2+]i) and were calculated as mean changes in Δ[Ca^2+]i ± S.E.M. (nM).

Δ[Ca2+]i, U46619-induced (TPα^T337,S340A; primary 1 μM U46619 4 min): 179 ± 11 nM
Δ[Ca2+]i, U46619-induced (TPα^T337,S340A; secondary 1 μM U46619 at 15 min): 40 ± 3.4 nM
Δ[Ca2+]i, U46619-induced (TPα; + GRK^DN (βARK1^495–689), primary 1 μM U46619): 150 ± 7.5 nM
Δ[Ca2+]i, U46619-induced (TPα; + GRK^DN, secondary 1 μM U46619 at 15 min): 0 nM
Δ[Ca2+]i, U46619-induced (TPα; primary stimulation, 1 μM U46619 4 min): 174 ± 8.8 nM
Δ[Ca2+]i, U46619-induced (TPα; secondary stimulation 1 μM U46619 at 15 min after primary, after washout): 0 nM
Δ[Ca2+]i, U46619-induced (TPα; secondary stimulation 1 μM U46619 at 60 min after primary, after washout): 0 nM
Δ[Ca2+]i, U46619-induced (TPα; vehicle as primary stimulation, washout, 1 μM U46619 at 60 min): 191.5 ± 25.5 nM
Δ[Ca2+]i, U46619-induced (TPα; − GRK^DN (pRK5 control), primary 1 μM U46619): 165 ± 9 nM
Δ[Ca2+]i, U46619-induced (TPα; − GRK^DN, secondary 1 μM U46619 at 15 min): 0 nM
Structure (SMILES): CCCCC[C@H](O)/C=C/[C@@H]1[C@@H](C/C=C\CCCC(=O)O)[C@H]2CO[C@@H]1C2 [U46619]
